ChEMBL document CHEMBL1201862, “PubChem BioAssay data set” (2004)
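Cultured in 96-well plates, cells were exposed to test compound for 48 hours across five concentrations. At the GI50, growth is halved.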 Calls of active or inactive are those of the source. No stated cut-off is given here; in the data, active = GI50 up to about 1.1 µM and inactive = higher.

How the values were obtained:
Test in all cases: NCI tumour cell line growth inhibition, 48 h
[1] = tested on: MOLT-4
[2] = tested on: Malme-3M
[3] = tested on: DU-145
[4] = tested on: NCI/ADR-RES
[5] = tested on: SR
[6] = tested on: 786-0
[7] = tested on: SNB-19
[8] = tested on: RPMI-8226
[9] = tested on: HOP-92
[10] = tested on: BT-549
[11] = tested on: HL-60
[12] = tested on: ACHN
[13] = tested on: NCI-H460
[14] = tested on: NCI-H23
[15] = tested on: LOX IMVI
[16] = tested on: CAKI-1
[17] = tested on: NCI-H522
[18] = tested on: SK-MEL-5
[19] = tested on: SNB-75
[20] = tested on: SK-OV-3

SMILES | GI50 [1] | GI50 [2] | GI50 [3] | GI50 [4] | GI50 [5] | GI50 [6] | GI50 [7] | GI50 [8] | GI50 [9] | GI50 [10] | GI50 [11] | GI50 [12] | GI50 [13] | GI50 [14] | GI50 [15] | GI50 [16] | GI50 [17] | GI50 [18] | GI50 [19] | GI50 [20]
Cc1ccc(/S(Cc2ccccc2)=N\S(=O)(=O)c2ccc(C)cc2)cc1 (configuration not stated) | 5.92 µM (inactive) | > 100 µM (inactive) | > 100 µM (inactive) | 50 µM (inactive) | > 100 µM (inactive) | > 100 µM (inactive) | > 100 µM (inactive) | > 100 µM (inactive) | > 100 µM (inactive) | > 100 µM (inactive) | > 100 µM (inactive) | > 100 µM (inactive) | > 100 µM (inactive) | > 100 µM (inactive) | – | – | – | – | – | –
Cn1c(=O)c2c(nc(Nc3ccc(Cl)cc3)n3c(=O)n(-c4ccccc4)c(=O)n23)n(C)c1=O | > 100 µM (inactive) | – | > 100 µM (inactive) | > 100 µM (inactive) | > 100 µM (inactive) | > 100 µM (inactive) | > 100 µM (inactive) | > 100 µM (inactive) | > 100 µM (inactive) | > 100 µM (inactive) | > 100 µM (inactive) | > 100 µM (inactive) | > 100 µM (inactive) | > 100 µM (inactive) | > 100 µM (inactive) | > 100 µM (inactive) | > 100 µM (inactive) | > 100 µM (inactive) | 15.5 µM (inactive) | –
O=[N+]([O-])c1ccc2c(c1)C1=C(CO2)Cc2ccccc2O1 | > 10 µM (inactive) | 26.4 µM (inactive) | 33.9 µM (inactive) | 30.3 µM (inactive) | 18.9 µM (inactive) | 17.4 µM (inactive) | – | 36.6 µM (inactive) | 23.9 µM (inactive) | 28.8 µM (inactive) | – | 15.5 µM (inactive) | – | 22 µM (inactive) | 14.8 µM (inactive) | 17.6 µM (inactive) | 22.4 µM (inactive) | 15.8 µM (inactive) | > 100 µM (inactive) | 74.5 µM (inactive)
CNCCCNC(=S)Cn1cc(C)c(=O)[nH]c1=O | > 35.2 µM (inactive) | > 100 µM (inactive) | > 52.2 µM (inactive) | > 57.8 µM (inactive) | > 32.9 µM (inactive) | > 44.3 µM (inactive) | > 91.2 µM (inactive) | > 100 µM (inactive) | 34.4 µM (inactive) | > 61.9 µM (inactive) | – | > 49.2 µM (inactive) | > 43 µM (inactive) | > 41.8 µM (inactive) | > 34.2 µM (inactive) | 24.9 µM (inactive) | > 53.6 µM (inactive) | > 21.3 µM (inactive) | > 54.2 µM (inactive) | > 54.8 µM (inactive)
NNC(=O)c1cc([N+](=O)[O-])ccc1NC(=O)C12CC3CC(CC(C3)C1)C2 | 3.32 µM (inactive) | 16.5 µM (inactive) | 20 µM (inactive) | 15.9 µM (inactive) | 3.43 µM (inactive) | 11.7 µM (inactive) | 2.98 µM (inactive) | 12.2 µM (inactive) | 12.9 µM (inactive) | 26.6 µM (inactive) | 3.09 µM (inactive) | 10 µM (inactive) | 18.1 µM (inactive) | 19.5 µM (inactive) | 2.93 µM (inactive) | 5.7 µM (inactive) | 3 µM (inactive) | 19.2 µM (inactive) | – | 2.7 µM (inactive)
CC1(C)[C@@H]2CC[C@@]1(C)CN(CCC[N+](C)(C)C)C2 | > 100 µM (inactive) | > 100 µM (inactive) | > 100 µM (inactive) | > 100 µM (inactive) | > 100 µM (inactive) | > 100 µM (inactive) | > 100 µM (inactive) | > 100 µM (inactive) | > 100 µM (inactive) | > 100 µM (inactive) | – | > 100 µM (inactive) | > 100 µM (inactive) | > 100 µM (inactive) | > 100 µM (inactive) | > 100 µM (inactive) | > 100 µM (inactive) | > 100 µM (inactive) | > 100 µM (inactive) | > 100 µM (inactive)
c1ccc(-c2nc3ccccc3n3c(CN4CCCCC4)nnc23)cc1 | > 100 µM (inactive) | > 100 µM (inactive) | > 100 µM (inactive) | > 100 µM (inactive) | > 100 µM (inactive) | 37.3 µM (inactive) | 36.2 µM (inactive) | > 100 µM (inactive) | 31.2 µM (inactive) | 80.2 µM (inactive) | – | 28.7 µM (inactive) | > 100 µM (inactive) | – | > 100 µM (inactive) | > 100 µM (inactive) | > 100 µM (inactive) | > 100 µM (inactive) | 19.2 µM (inactive) | 47.3 µM (inactive)
N#Cc1c(-c2ccc([N+](=O)[O-])cc2)cc(-c2ccc(Nc3ccnc4cc(C(F)(F)F)ccc34)cc2)nc1N | 4.34 µM (inactive) | 30.3 µM (inactive) | 13.1 µM (inactive) | 8.89 µM (inactive) | 1.79 µM (inactive) | 4.1 µM (inactive) | 18.6 µM (inactive) | 4.27 µM (inactive) | 20.8 µM (inactive) | 37.2 µM (inactive) | – | 29.6 µM (inactive) | 11.9 µM (inactive) | 23.2 µM (inactive) | 3.64 µM (inactive) | 18.5 µM (inactive) | 17.2 µM (inactive) | 25.5 µM (inactive) | 20.4 µM (inactive) | 24 µM (inactive)
O=C(C/C(=N/O)C(F)(F)F)c1cccs1 | > 100 µM (inactive) | – | > 100 µM (inactive) | > 100 µM (inactive) | > 100 µM (inactive) | > 100 µM (inactive) | 50 µM (inactive) | > 100 µM (inactive) | > 100 µM (inactive) | > 100 µM (inactive) | > 100 µM (inactive) | > 100 µM (inactive) | > 100 µM (inactive) | > 100 µM (inactive) | > 100 µM (inactive) | > 100 µM (inactive) | – | > 100 µM (inactive) | > 100 µM (inactive) | 76.2 µM (inactive)
COc1ccc(/N=C2/C(=N/c3ccc(OC)cc3)N(c3ccccc3)C(=S)N2N=C=C2Sc3ccccc3N2C)cc1 | > 100 µM (inactive) | > 100 µM (inactive) | > 100 µM (inactive) | > 100 µM (inactive) | > 100 µM (inactive) | > 100 µM (inactive) | > 100 µM (inactive) | > 100 µM (inactive) | 47.3 µM (inactive) | > 100 µM (inactive) | – | > 100 µM (inactive) | > 100 µM (inactive) | 9.27 µM (inactive) | – | > 100 µM (inactive) | > 100 µM (inactive) | > 100 µM (inactive) | – | > 100 µM (inactive)
COc1ccc(-c2csc3c2-n2cccc2C3=O)cc1 | 0.0444 µM (active) | 28.8 µM (inactive) | 0.175 µM (active) | < 0.0204 µM (active) | 0.0206 µM (active) | 0.303 µM (active) | 0.0745 µM (active) | 0.0425 µM (active) | 3.12 µM (inactive) | 8.93 µM (inactive) | < 0.0176 µM (active) | 0.805 µM (active) | 0.11 µM (active) | 0.438 µM (active) | 0.0458 µM (active) | 0.268 µM (active) | – | 0.0581 µM (active) | 0.0964 µM (active) | 0.216 µM (active)
